Results published in patent US20150238394A1, “Triggerable Compositions For Two-Stage, Controlled Release of Proactive Chemistry Using Aldehydes” (Kimberly-Clark Worldwide, Inc., priority 2014, published 2015).

Test: Volatility and smell of non-salt acetals, neat and embedded in polymer films brushed on polyethylene film and air-dried
Type: physicochemical
Settings: embedded in PVP/VA, Eudragit E-100 and Eudragit S-100, brushed on polyethylene films, air-dried
Source text: 1. Acetal of citronellal with ethanol and acetal of vanillin with ethanol were custom-synthesized. Their structures are shown below. […] The acetals were embedded in PVP/VA, Eudragit E-100, and Eudragit S-100 by simply dissolving the acetals in the solutions of those polymers. The solutions were then brushed on polyethylene films and air-dried. The parent aldehydes were also embedded in the same ratio in those polymers. Strong smells of both parent aldehydes and acetals could be nasally detected after drying. Those non-salt based acetals cannot effectively reduce the volatility of aldehyde-based fragrances and are not good pro-actives for stabilizing those fragrances.

| smell nasally detected after drying | SMILES |
| --- | --- |
| Strong smells | CCOC(OCC)c1ccc(O)c(OC)c1 [acetal of vanillin with ethanol] |
| Strong smells | CCOC(CC(C)CCC=C(C)C)OCC (stereo not shown) [Acetal of citronellal with ethanol] |
| Strong smells | CC(C)=CCCC(C)CC=O (stereo not shown) [citronellal] |
| Strong smells | COc1cc(C=O)ccc1O [vanillin] |
